Source: article PMC8222276 (Communications Biology, 2021)

Tests used:
[1] = target: T1, AM1 receptor (CLR-RAMP2) in HUVECs (Homo sapiens, UniProt O60895+Q16602); test: ERK1/2 phosphorylation in HUVECs; type: cell-based
T1 construct: HUVECs specifically express the AM1 receptor alone; host or cells: primary HUVECs
Method: Data are analysed using a three-parameter non-linear regression curve or the operational model of receptor agonism. g–h Signalling bias plots were calculated as ∆Log(τ/KA) (g) or ∆∆Log(τ/KA) (h) for each agonist and for each signalling pathway. […] Solid arrows indicate known pathways. Dashed arrows represent possible pathways.
Data are analysed using a three-parameter non-linear regression curve. All data represent mean ± SEM of n independent experiments. Statistical significance determined compared to control using an unpaired Student’s t test with Welch’s correction (*p < 0.05; **p < 0.01; ***p < 0.001).
Primary cells were grown in 6 well plates, on the day of the experiment media was replaced with serum free media 4 h prior to cell harvesting. Tyrpsin-EDTA was used to dissociate the cells and they were collected by centrifugation, counted and re-suspended HBSS/BSA (0.1%). Ligands were also diluted in HBSS/BSA. Cells were then plated on 384 well plates in 8 μl aliquots at a density of 20,000 cells/well. Next, ligands were added (4 μl) for 5 min stimulation at room temperature. Cells were then lysed as per to the manufacturer’s instructions with 4 μl of lysis buffer (Cisbio phosphor-ERK1/2 cellular assay kit, Invitrogen, UK) for 30 min shaking at room temperature. The 2 specific antibodies; were pre-mixed in a 1:1 ratio. 4 μl of this was added to each well and the plate incubated for a further 2 h. […] Antagonist studies were performed in the same way through co-stimulation with PTX (200 ng/ml), Rp-8-Br-cAMPS (100 μM), YM-254890 (100 nM), or ESI-09 (100 μM) as appropriate alongside control-treated cell.
(§1) All sample sizes were determined, and data analysed, in accordance with the guidelines described by Curtis M et al.[65]. All experiments were appropriately controlled using ‘system pathway’ agonists. If any of these pathway controls generated inappropriate responses, then the entire data set was removed from analysis. […] Data analysis for cAMP accumulation, Ca^2+i mobilisation, NO accumulation, pERK1/2 activation, and cell proliferation assays were performed in GraphPad Prism 8.4 (GraphPad Software, San Diego). Data were fitted to obtain concentration–response curves using either the three-parameter logistic equation using to obtain values of Emax and pEC50 or the operational model of agonism. Statistical differences were analysed using one-way ANOVA followed by Dunnett’s post-hoc (for comparisons amongst more than two groups) or unpaired Student’s t test with Welch’s correction (for comparison between two groups). To account for the day-to-day variation experienced from the cultured cells, we used the maximal level of cAMP accumulation from cells in response to 100 μM forskolin stimulation was used as a reference, 10 μM ionomycin for Ca^2+i assays, 10 μM phorbol 12-myristate 13-acetate (PMA) for pERK1/2 activation, 10 μM acetylcholine for NO production and 10 μM VEGF for cell proliferation. […] Where appropriate the operational model for receptor agonism[27] was used to obtain efficacy (τ) and equilibrium disassociation constant (KA) values. In both cases, this normalisation removes the variation due to differences in days but retains the variance for control values. The means of individual experiments were combined to generate the curves shown. Having obtained values for τ and KA these were then used to quantify signalling bias as the change in Log(τ/KA)[19],[28]. Error for this composite measure was propagated by applying Eq. 1.1 PooledSEM=(SEMA)^2+(SEMB)^2 Where, SEMA and SEMB are the standard error of measurement A and B.

[2] = target: T2, AM1 receptor (CLR-RAMP2) in HUAECs (Homo sapiens, UniProt O60895+Q16602); test: cAMP accumulation in HUAECs; type: cell-based
T2 construct: host or cells: primary HUAECs
Method: All primary cell lines were cultured as above. On the day of the experiment media was removed and cells washed with PBS, before being dissociated with Trypsin-EDTA 0.05% (Gibco, UK) and then resuspended in PBS/BSA (0.1%) (Sigma, UK). Cells were immediately plated for use in cAMP assay as per the manufacturer’s instructions, reagents used were provided by the LANCE® cAMP detection assay kit (PerkinElmer, Boston, MA, USA), in 384 well optiplates (PerkinElmer (Boston, MA, USA)) at 2000 cells/well in 5 μl aliquots. […] Cells were incubated with compound for 30 min prior to adding detection buffer[28],[60]. Plates were incubated for a further 60 min (room temperature) and then read on a plate reader (Mithras LB 940 microplate reader (Berthold technologies, Germany)). All responses were normalised to 100μM forskolin (Tocris, UK). Antagonist studies were performed in the same way through co-stimulation of the relevant concentration. Alongside control-treated cell. Experiments with PTX (Sigma, UK) required pretreatment (16 h) prior to assays.
as §1, with “The means of individual experiments were combined to generate the curves shown.” left out, “Error for this composite measure was propagated by applying Eq. 1.1 PooledSEM=(SEMA)^2+(SEMB)^2 Where, SEMA and SEMB are the standard error of measurement A and B.” left out

heart = details: cited from earlier work
[3] = target: T3, CGRP receptor (CLR-RAMP1) in human cardiomyocytes (HCMs) (Homo sapiens, UniProt O60894+Q16602); test: cAMP accumulation in HCMs; type: cell-based; details: HCM, 30 min, relative to 100 μM forskolin, mean ± SEM
T3 construct: primary human cardiomyocytes (HCMs) since these cells only expressed CLR and RAMP1; host or cells: primary human cardiomyocytes (HCMs)
Method: Data are analysed using a three-parameter non-linear regression curve or the operational model of receptor agonism. g, h Signalling bias plots were calculated as ∆Log(τ/KA) (g) or ∆∆Log(τ/KA) (h) for each agonist and for each signalling pathway. […] All data represent mean ± SEM for n repeats.
All primary cell lines were cultured as above. On the day of the experiment media was removed and cells washed with PBS, before being dissociated with Trypsin-EDTA 0.05% (Gibco, UK) and then resuspended in PBS/BSA (0.1%) (Sigma, UK). […] Plates were incubated for a further 60 min (room temperature) and then read on a plate reader (Mithras LB 940 microplate reader (Berthold technologies, Germany)). […]
All sample sizes were determined, and data analysed, in accordance with the guidelines described by Curtis M et al.[65]. […] Statistical differences were analysed using one-way ANOVA followed by Dunnett’s post-hoc (for comparisons amongst more than two groups) or unpaired Student’s t test with Welch’s correction (for comparison between two groups). […] Having obtained values for τ and KA these were then used to quantify signalling bias as the change in Log(τ/KA)[19],[28]. […]

[4] = pERK1/2, HUVEC, operational model, mean ± SEM
[5] = cAMP, HUAEC, operational model, mean ± SEM

T2 sequence (Q16602 23-461): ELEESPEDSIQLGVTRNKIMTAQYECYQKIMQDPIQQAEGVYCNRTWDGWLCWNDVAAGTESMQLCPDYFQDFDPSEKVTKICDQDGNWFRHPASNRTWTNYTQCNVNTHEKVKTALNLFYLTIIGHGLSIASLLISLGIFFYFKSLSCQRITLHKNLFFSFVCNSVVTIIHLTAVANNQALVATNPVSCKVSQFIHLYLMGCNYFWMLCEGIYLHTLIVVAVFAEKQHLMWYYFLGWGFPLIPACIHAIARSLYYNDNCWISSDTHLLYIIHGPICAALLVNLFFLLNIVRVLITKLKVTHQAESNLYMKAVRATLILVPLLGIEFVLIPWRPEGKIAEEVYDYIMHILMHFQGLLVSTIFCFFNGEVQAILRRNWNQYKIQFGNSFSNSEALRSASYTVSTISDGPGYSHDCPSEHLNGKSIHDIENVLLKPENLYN
T2 sequence (O60895 43-175): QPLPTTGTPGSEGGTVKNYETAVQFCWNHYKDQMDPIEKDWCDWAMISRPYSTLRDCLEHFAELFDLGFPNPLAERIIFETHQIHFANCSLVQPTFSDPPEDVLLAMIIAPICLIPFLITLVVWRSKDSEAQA
T1 sequence (Q16602 23-461): as the sequence (Q16602 23-461) above
T1 sequence (O60895 43-175): as the sequence (O60895 43-175) above
T3 sequence (Q16602 23-461): as the sequence (Q16602 23-461) above
T3 sequence (O60894 27-148): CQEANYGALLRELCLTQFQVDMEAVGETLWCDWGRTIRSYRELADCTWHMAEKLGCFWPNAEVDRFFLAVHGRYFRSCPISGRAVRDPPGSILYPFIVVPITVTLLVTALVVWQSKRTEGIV

Emax [3] [%] | SMILES | Emax ([1]; HUVEC) [%] | mechanism of ERK1/2 stimulation ([1]; HUVEC) | effect of PTX on ERK1/2 phosphorylation ([1]; HUVEC, PTX) | Transducer coefficient Log(τ/KA) ([1]; pERK1/2, HUVEC, calculated from Table S1) | logτ [1, 4] | pKA [1, 4] | Emax [2] [%] | Transducer coefficient Log(τ/KA) ([2]; cAMP, HUAEC, calculated from Table S1) | logτ [2, 5] | pKA [2, 5] | effect of protein kinase inhibitors on contraction effect (heart)
– | CSCC[C@H](NC(=O)[C@H](CC(C)C)NC(=O)[C@H](CCC(N)=O)NC(=O)[C@H](Cc1c[nH]c2ccccc12)NC(=O)[C@H](CC(C)C)NC(=O)[C@H](CCCNC(=N)N)NC(=O)[C@H](Cc1c[nH]cn1)NC(=O)[C@H](CO)NC(=O)[C@H](CC(C)C)NC(=O)[C@H](CC(N)=O)NC(=O)[C@H](CCC(N)=O)NC(=O)[C@@H](NC(=O)[C@H](CCC(N)=O)NC(=O)[C@@H]1CSSC[C@H](NC(=O)CNC(=O)[C@@H](NC(=O)[C@H](CCCNC(=N)N)NC(=O)[C@H](CC(C)C)NC(=O)[C@H](CC(C)C)NC(=O)[C@H](CCC(N)=O)NC(=O)[C@H](C)NC(=O)[C@H](CCC(N)=O)NC(=O)[C@@H](N)[C@@H](C)O)C(C)C)C(=O)N[C@@H](C(C)C)C(=O)N[C@@H](CC(C)C)C(=O)NCC(=O)N[C@@H]([C@@H](C)O)C(=O)N1)C(C)C)C(=O)NCC(=O)N1CCC[C@H]1C(=O)N[C@@H](C)C(=O)NCC(=O)N[C@@H](CCCNC(=N)N)C(=O)N[C@@H](CCC(N)=O)C(=O)N[C@@H](CC(=O)O)C(=O)N[C@@H](CO)C(=O)N[C@@H](C)C(=O)N1CCC[C@H]1C(=O)N[C@H](C(=O)N[C@@H](CC(=O)O)C(=O)N1CCC[C@H]1C(=O)N[C@@H](CO)C(=O)N[C@@H](CO)C(=O)N1CCC[C@H]1C(=O)N[C@@H](Cc1c[nH]cn1)C(=O)N[C@@H](CO)C(=O)N[C@@H](Cc1ccc(O)cc1)C(N)=O)C(C)C [AM2, adrenomedullin 2] | 33.3 ± 4.59 | mediated in a Gi/o-dependent manner | suppression of ERK1/2 phosphorylation | 5.06±0.21 | -0.35±0.08 | 5.41±0.19 | 17.5 ± 1.21 | 6.03±0.22 | -0.75±0.05 | 6.78±0.21 | blocked by both inhibitors of both protein kinase A and C
63 ± 3.14 | CC[C@H](C)[C@H](NC(=O)[C@H](CCC(N)=O)NC(=O)[C@H](Cc1c[nH]cn1)NC(=O)[C@H](C)NC(=O)[C@H](CC(C)C)NC(=O)[C@H](CCCCN)NC(=O)[C@H](CCC(N)=O)NC(=O)[C@@H](NC(=O)[C@@H](NC(=O)[C@@H]1CSSC[C@H](NC(=O)CNC(=O)[C@H](Cc2ccccc2)NC(=O)[C@H](CO)NC(=O)[C@H](CCCNC(=N)N)NC(=O)[C@H](CC(C)C)NC(=O)CNC(=O)[C@H](CCC(N)=O)NC(=O)[C@H](Cc2ccccc2)NC(=O)[C@H](CC(N)=O)NC(=O)[C@H](CC(N)=O)NC(=O)[C@H](CCSC)NC(=O)[C@H](CO)NC(=O)[C@H](CCC(N)=O)NC(=O)[C@H](CCCNC(=N)N)NC(=O)[C@@H](N)Cc2ccc(O)cc2)C(=O)N[C@@H](CCCNC(=N)N)C(=O)N[C@@H](Cc2ccccc2)C(=O)NCC(=O)N[C@@H]([C@@H](C)O)C(=O)N1)[C@@H](C)O)C(C)C)C(=O)N[C@@H](Cc1ccc(O)cc1)C(=O)N[C@@H](CCC(N)=O)C(=O)N[C@@H](Cc1ccccc1)C(=O)N[C@H](C(=O)N[C@@H](CC(=O)O)C(=O)N[C@@H](CCCCN)C(=O)N[C@@H](CC(=O)O)C(=O)N[C@@H](CCCCN)C(=O)N[C@@H](CC(=O)O)C(=O)N[C@@H](CC(N)=O)C(=O)N[C@H](C(=O)N[C@@H](C)C(=O)N1CCC[C@H]1C(=O)N[C@@H](CCCNC(=N)N)C(=O)N[C@@H](CO)C(=O)N[C@@H](CCCCN)C(=O)N[C@H](C(=O)N[C@@H](CO)C(=O)N1CCC[C@H]1C(=O)N[C@@H](CCC(N)=O)C(=O)NCC(=O)N[C@@H](Cc1ccc(O)cc1)C(N)=O)[C@@H](C)CC)C(C)C)[C@@H](C)O [AM, adrenomedullin] | – | – | – | – | – | – | – | – | – | – | –
